Values quoted from earlier work as cited in patent publication US9374973B2, “Grass endophytes” (GRASSLANZ TECHNOLOGY LTD, priority 2003, dated 2016).

Tests used:
[1] = system: grazing sheep, cattle, deer and horses
[2] = system: Argentine stem weevil (Listronotus bonariensis); conditions: in vivo
[3] = system: black beetle (Heteronychus arator); conditions: in vivo

Q: For `CC(C)=C[C@H]1O[C@H]2[C@H]3O[C@@]34[C@H](CC[C@@]3(C)[C@@]4(O)CC[C@H]4Cc5c([nH]c6ccc7c(c56)C[C@@H]5[C@@H](C7=O)C(C)(C)OC5(C)C)[C@@]43C)O[C@@H]2C(C)(C)O1` [Lolitrem B], which “Herbage concentration that may result in clinical symptoms of ryegrass staggers” value ([1]; grazing sheep, cattle, deer and horses) is on record?
A: Its value is > 2 ppm of herbage dry matter.

Q: With `Cn1c(CCCN=C(N)N)cn2cccc2c1=O` [Peramine] as the compound, how does the “Effect on Argentine stem weevil” value [2] read?
A: The value was “feeding deterrent”.

Q: Which results are given for `CC(C)[C@H]1C(=O)N2CCC[C@H]2[C@]2(O)O[C@@](C)(NC(=O)[C@@H]3C=C4c5cccc6[nH]cc(c56)C[C@H]4N(C)C3)C(=O)N12` [Ergovaline]?
A: Concentration in ryegrass pastures likely to elicit hyperthermia and depressed prolactin responses ([1]; bovine, in vivo): above 0.5 ppm; Effect on black beetle [3]: deterrent

Q: Which “Effect on Argentine stem weevil” value [2] does the source give for lolitrem here?
A: Its value is “toxic”.
